“Also recorded” adds a separate entry of the source.
Key:
Sabra mice = assay: Open-field test, ambulation behavior, PCP mouse model of schizophrenia
CB1 receptor = assay: RT-PCR CB1 receptor mRNA level in the cortex; assay type: in vivo, mice
Protocol: (§1) 100 microliters of 2-propanol was added. […] RNA was stored at −80 deg C.

[1] = system: endocannabinoid catabolic enzymes (FAAH, MGL, ABHD6); assay: RT-PCR mRNA level of endocannabinoid catabolic enzymes in cortex and brainstem; assay type: in vivo, mice; settings: BCP after exposure to phencyclidine, females
Protocol: as §1

GAD67 = assay: RT-PCR GAD67 mRNA level in the cortex; assay type: in vivo, mice
Protocol: as §1

IL-6 = assay: RT-PCR IL-6 mRNA level in the cortex; assay type: in vivo, mice
Protocol: as §1

ABHD6 = assay: RT-PCR ABHD6 mRNA level in the cortex; assay type: in vivo, mice
Protocol: as §1

FAAH = assay: RT-PCR FAAH mRNA level in the cortex; assay type: in vivo, mice
Protocol: as §1

MGL = assay: RT-PCR MGL mRNA level in the cortex; assay type: in vivo, mice
Protocol: as §1

NAPE-PLD = assay: RT-PCR NAPE-PLD mRNA level in the cortex; assay type: in vivo, mice
Protocol: as §1

CB2 receptor = assay: RT-PCR CB2 receptor mRNA level in the cortex; settings: PCP vs control group
Protocol: Each brain area was placed in an Eppendorf vessel and covered with RNAlater® solution (Ambion). Eppendorfs were stored overnight at 4° C. and then stored at (−)80° C. for permanent use.
Twenty microliters of 1-bromo-3-chloropropane were added and the Eppendorf was vortexed. After 10 min at room temperature it was centrifuged at 12,000×g for 15 minutes at 4° C. Then the colorless upper aqueous phase was removed to a fresh tube. 100 microliters of 2-propanol was added. Samples were centrifuged again 12,000×g for 10 minutes at 4° C. The supernatant was removed and the RNA pellet was washed with 200 ul cold 75% ethanol. The sample was re-centrifuged at 8000×g for 5 minutes at 4° C. The RNA pellet was dried for 5 minutes by air-drying on ice and 50 ul DEPC water were added to the RNA pellet. RNA was stored at −80 deg C. Genomic DNA strands were then removed by Turbo DNA-free Kit according to manufacturer's recommendation. RNA level was read by Nanodrop® reader. cDNA was prepared according to the manufacturer recommendation using High Capacity cDNA Reverse Transcription Kit (Applied Biosystems).
RT-PCR reaction mix was prepared with Power SYBR® Green PCR Master Mix (Applied Biosystems) according to manufacturer instructions. Mixes were read with Mx300P (Stratagen) and the results of Ct were analysed according to the delta-delta Ct method of analysis.

[2] = BCP after PCP, female mice, cortex
[3] = BCP after PCP, male mice, cortex
[4] = BCP after PCP, female mice, right and left cortices
[5] = PCP vs control group, female mice, right cortex
[6] = PCP vs control group, male mice, right cortex
[7] = PCP vs control group, female mice, right and left cortices
[8] = PCP vs control group, male mice, cortex
[9] = PCP vs control group, female mice, left cortex
[10] = PCP vs control group, male mice, left cortex

C=C1CC/C=C(\C)CC[C@@H]2[C@@H]1CC2(C)C [BCP, beta-caryophyllene]
ambulation behavior (Sabra mice; BCP 10 mg/kg one hour after PCP, Sabra female mice): reversed altered behavior | ambulation behavior (Sabra mice; BCP 10 mg/kg one hour after PCP, Sabra male mice): reversed altered behavior | CB1 receptor mRNA level (CB1 receptor; [2]): did not alter gene expression of CB1 receptor | CB1 receptor mRNA level (CB1 receptor; [3]): did not alter gene expression of CB1 receptor | mRNA level of the selected endocannabinoid catabolic enzymes [1]: did not lead to significant changes | GAD67 mRNA level (GAD67; [4]): did not reverse this effect | GAD67 mRNA level (GAD67; [3]): did not affect the expression level of GAD67 mRNA | IL-6 mRNA level (IL-6; [2]): did not alter gene expression of IL-6 | IL-6 mRNA level (IL-6; [3]): reversed the effect of PCP | ABHD6 mRNA level (ABHD6; [2]): did not reverse; also recorded: did not alter gene expression of ABHD6 | FAAH mRNA level (FAAH; [2]): did not reverse; also recorded: did not alter gene expression of FAAH | FAAH mRNA level (FAAH; BCP after PCP, male mice): reversed the effect of PCP | MGL mRNA level (MGL; [2]): did not reverse; also recorded: did not alter gene expression of MGL | NAPE-PLD mRNA level (NAPE-PLD; [4]): did not reverse this effect | NAPE-PLD mRNA level (NAPE-PLD; [3]): did not affect the expression level of NAPE-PLD mRNA

c1ccc(C2(N3CCCCC3)CCCCC2)cc1 [PCP, Phencyclidine]
ambulation behavior (Sabra mice; PCP 5 mg/kg vs control group, Sabra female mice): reduced | ambulation behavior (Sabra mice; PCP 5 mg/kg vs control group, Sabra male mice): elevated | CB1 receptor mRNA level (CB1 receptor; [5]): elevated; also recorded: increased | CB1 receptor mRNA level (CB1 receptor; [6]): elevated | CB2 receptor mRNA level (CB2 receptor; female mice, right cortex): reduced | CB2 receptor mRNA level (CB2 receptor; left cortex): no change | GAD67 mRNA level (GAD67; [7]): reduced | GAD67 mRNA level (GAD67; [8]): not altered | IL-6 mRNA level (IL-6; [9]): not in the left cortex | IL-6 mRNA level (IL-6; [5]): reduced | IL-6 mRNA level (IL-6; [10]): not in the left cortex | IL-6 mRNA level (IL-6; [6]): elevated | ABHD6 mRNA level (ABHD6; [9]): significantly decreased; also recorded: reduced | ABHD6 mRNA level (ABHD6; [5]): not in the right cortex | ABHD6 mRNA level (ABHD6; [10]): not in males | FAAH mRNA level (FAAH; [9]): significantly decreased; also recorded: reduced | MGL mRNA level (MGL; [9]): significantly decreased; also recorded: reduced | MGL mRNA level (MGL; [10]): not in males | NAPE-PLD mRNA level (NAPE-PLD; [7]): reduced | NAPE-PLD mRNA level (NAPE-PLD; [8]): not altered

Source: US20190241962A1, “GENETIC SUSCEPTIBILITY DIAGNOSIS AND TREATMENT OF MENTAL DISORDERS” (priority 2016, published 2019)
